According to patent US11723908B2, “Quinazoline derivatives as antitumor agents” (SUZHOU ZANRONG PHARMA LIMITED, priority 2018, dated 2023):
Like-named read-outs stand apart in the source and are kept apart here.

How the values were obtained:
HER2 = HER2 (Homo sapiens (Human), UniProt P04626); assay: BT474 cellular assay (HER2 inhibition), phospho-HER2 ELISA; type: cell-based; conditions: inhibition of phosphor HER2, BT474 cells, 2 hours compound incubation
Method: Assay a) BT474 Cellular Assay (HER2 Inhibition) Inhibition of phosphor HER2 was determined by enzyme-linked immunosorbent assay (ELISA) in BT474 cells. BT474 cell line was purchased from [NT] number HTB-20). Human Phospho-ErbB2 ELISA kit was purchased from R&D systems (catalog number DYC1768). Day 1: When the cells reach 70-90% confluence, cells were trypsinized and re-suspended. 5000 cells per well were seeded to a 384-well plate. The plate was incubated at 37° C. with 5% CO2 for 24 hours. ELISA plate was coated with 2 μg/ml capture antibody, which was incubated at 4° C. overnight. Day 2: 25 nl compounds was dosed by Echo from source plate and the 384-well plate was incubated at 37° C. for 2 hours. 30 μl lysis buffer was added to each well and the 384-well plate was shaken softly at 4° C. for 30 minutes. The ELISA plate was washed, blocked and incubated at room temperature for 1-2 hours. The blocked ELISA plate was washed and 20 μl cell lysate was transferred from the 384-well plate to the ELISA plate, which was incubated overnight at 4° C. Day 3: The ELISA plate was washed 3 times. 25 μl/well detection antibody was added (diluted 1 by 2000 in 1% BSA in PBS). After 2 hours of incubation with detection antibody, the ELISA plate was washed 3 times, 25 μl/well TMB substrate was added and incubated for 10-15 minutes before stop solution was added. Absorbance at 450 nm and 570 nm was read within 30 minutes after adding the stop solution. […] The IC50 results are provided in Table 1 for some exemplary compounds.

P-glycoprotein (Pgp) = P-glycoprotein (Pgp) (Homo sapiens (Human), UniProt P08183); assay: MDCK-MDR1 Pgp assessment; type: in vitro ADME; conditions: for Pgp substrate status: conclusion from Table 3; for efflux ratio at 2 h, 1 μM: dog, MDCK-MDR1 cells, 37° C. for 2 hours, read-out: PgpER
Method: Assay c): MDCK-MDR1 Pgp Assessment
Efflux transport mediated by P-glycoprotein (Pgp) was assessed by MDCK-MDR1 cells. The final concentrations of test compounds and control compound were at 1 μM. The multi-well insert plate was incubated at 37° C. for 2 hours.

hERG channel = hERG channel (Homo sapiens (Human), UniProt Q12809); assay: hERG inhibition, manual patch clamp in HEK 293 cells; type: cell-based; conditions: for IC50: HEK 293 cell line stably expressing hERG channel, manual patch clamp; for hERG liability: conclusion from Table 3
Method: Assay f): hERG Inhibition Inhibition of hERG channel was conducted in HEK 293 cell line stably expressing hERG channel by manual patch clamp.

wt-EGFR = wt-EGFR (Homo sapiens (Human), UniProt P00533); assay: NCI H838 cellular assay (wt-EGFR inhibition), phospho-EGFR ELISA; type: cell-based
Method: Assay b) NCI H838 Cellular Assay (Wt-EGFR Inhibition) Inhibition of phosphor wt-EGFR was determined by enzyme-linked immunosorbent assay (ELISA) in NCI H838 cells (ATCC, catalog number CRL-5844). Human Phospho-EGFR DuoSet IC ELISA kit was purchased from R&D systems (catalog number DYC1095). Day 1: When the cells reach 70-90% confluence, cells were trypsinized and re-suspended. 5000 cells per well were seeded to a 384-well plate. The plate was incubated at 37° C. with 5% CO2 for 24 hours. Day 2: Cell culture medium was replaced with 40 μL FBS-Free RPMI1640. After 2 hours of starvation, the 384-well plate was dosed with 40 nL of compounds by Echo from source plate and the 384-well plate was incubated at 37° C. with 5% CO2 for 2 hours. After 2 hours of incubation with compounds, EGF (final concentration at 100 ng/ml) was added to the plate which was incubated at 37° C. with 5% CO2 for 5-10 minutes. Medium was discarded from the plate and 30 μl/well lysis buffer was added to the plate which was incubated at 4° C. for 10 minutes. The cell lysates can be stored at −80° C. in cell plates but must be thawed at room temperature for at least 30 minutes prior to use and continuing the assay. ELISA plate was coated by diluting capture antibody to 4 μg/ml with PBS, and 25 μl/well was dispensed to 384 well UltraCruz® ELISA Plate, which was incubated at 4° C. overnight. Day 3: After the plates were washed three times with 100 μl/well of wash buffer, the plates were blocked by adding 75 μl of Block Buffer to each well and incubated at room temperature for 3 hours. After the plates were washed three times with 100 μl/well of wash buffer, 20 μl cell lysate was transferred to the blocked ELISA plate which was incubated for 2 hours at room temperature. After the plates were washed three times with 100 μl/well of wash buffer, 25 μl/well detection antibody (dilute 1 in 900 in assay buffer) was added the plate which was incubated for 2 hours, protected from light. After washed three times, 25 μl/well TMB substrate was added to the ELISA plate which was incubated for about 10-15 min, protected from light before addition of 25 μl/well stop solution. Absorbance was read at 450 nm and 570 nm within 30 minutes.

BCRP = BCRP (Homo sapiens (Human), UniProt Q9UNQ0); assay: Caco-2 BCRP assessment; type: in vitro ADME; conditions: for BCRP ER: Caco-2 cells, 1 μM, efflux ratio -/+ novobiocin 30 μM, >2 = BCRP substrate; for BCRP substrate status: conclusion from Table 3
Method: Assay d): Caco-2 BCRP Assessment
Caco-2 cells were used to study efflux transport mediated by BCRP. Rate of drug transport by BCRP was determined in the presence and absence of novobiocin, a strong inhibitor of BCRP, which was added to both apical and basolateral compartment sat a final concentration of 30 μM. The final concentrations of test compounds and control compound were at 1 μM. The multi-well insert plate was incubated at 37° C. for 2 hours. Efflux ratio (−inhibitor/+inhibitor)>2 was considered to be a BCRP substrate.

[1] = Mouse SOA study for brain penetration; type: in vivo; conditions: for Kp: male, balb/c, mouse, brain, po, 10 mg/kg, read-out: Mouse Kpu, u; for brain penetration in vivo: mouse SOA study, conclusion from Table 3; for Mouse Kpu, u: male balb/c mice, oral 10 mg/kg, AUC 0-7 hr brain/plasma, unbound
Method: Assay e) Mouse SOA Study for Brain Penetration
Six non-fasted male balb/c mice (6-8 weeks, 20-25 g) were orally administered at 10 mg/kg, using a suspension formulation of 1% methylcellulose (MC) in deionized water. Brain and blood samples were collected at 0.25, 0.5, 1, 2, 4, 7 hours after dose. Plasma was obtained by centrifuging the blood samples for 5 min at 4000 g and 4° C. Brain tissue was homogenized following addition of four times the volume of phosphate-buffered saline (pH 7.4). Quantification of the compound in plasma and brain was undertaken by LC-MS/MS. Area under the curve (AUC) was determined from 0 to 7 hours in the brain tissue and plasma.
Total brain to plasma concentration ratio Kp was determined using the equation: Brain Kp=AUC0-7 hr brain/AUC0-7 hr plasma
Unbound brain to plasma ratio was determined using the equation: Brain Kp,uu=Kp*fu,brain/fu,plasma
Unbound fraction (fu, plasma) and unbound fraction (fu, brain) were obtained from in vitro equilibrium dialysis by using plasma and brain homogenate, respectively.

[2] = inhibition of phosphor wt-EGFR, NCI H838 cells, EGF 100 ng/ml

Sequence of P-glycoprotein (Pgp) (P08183 whole entry): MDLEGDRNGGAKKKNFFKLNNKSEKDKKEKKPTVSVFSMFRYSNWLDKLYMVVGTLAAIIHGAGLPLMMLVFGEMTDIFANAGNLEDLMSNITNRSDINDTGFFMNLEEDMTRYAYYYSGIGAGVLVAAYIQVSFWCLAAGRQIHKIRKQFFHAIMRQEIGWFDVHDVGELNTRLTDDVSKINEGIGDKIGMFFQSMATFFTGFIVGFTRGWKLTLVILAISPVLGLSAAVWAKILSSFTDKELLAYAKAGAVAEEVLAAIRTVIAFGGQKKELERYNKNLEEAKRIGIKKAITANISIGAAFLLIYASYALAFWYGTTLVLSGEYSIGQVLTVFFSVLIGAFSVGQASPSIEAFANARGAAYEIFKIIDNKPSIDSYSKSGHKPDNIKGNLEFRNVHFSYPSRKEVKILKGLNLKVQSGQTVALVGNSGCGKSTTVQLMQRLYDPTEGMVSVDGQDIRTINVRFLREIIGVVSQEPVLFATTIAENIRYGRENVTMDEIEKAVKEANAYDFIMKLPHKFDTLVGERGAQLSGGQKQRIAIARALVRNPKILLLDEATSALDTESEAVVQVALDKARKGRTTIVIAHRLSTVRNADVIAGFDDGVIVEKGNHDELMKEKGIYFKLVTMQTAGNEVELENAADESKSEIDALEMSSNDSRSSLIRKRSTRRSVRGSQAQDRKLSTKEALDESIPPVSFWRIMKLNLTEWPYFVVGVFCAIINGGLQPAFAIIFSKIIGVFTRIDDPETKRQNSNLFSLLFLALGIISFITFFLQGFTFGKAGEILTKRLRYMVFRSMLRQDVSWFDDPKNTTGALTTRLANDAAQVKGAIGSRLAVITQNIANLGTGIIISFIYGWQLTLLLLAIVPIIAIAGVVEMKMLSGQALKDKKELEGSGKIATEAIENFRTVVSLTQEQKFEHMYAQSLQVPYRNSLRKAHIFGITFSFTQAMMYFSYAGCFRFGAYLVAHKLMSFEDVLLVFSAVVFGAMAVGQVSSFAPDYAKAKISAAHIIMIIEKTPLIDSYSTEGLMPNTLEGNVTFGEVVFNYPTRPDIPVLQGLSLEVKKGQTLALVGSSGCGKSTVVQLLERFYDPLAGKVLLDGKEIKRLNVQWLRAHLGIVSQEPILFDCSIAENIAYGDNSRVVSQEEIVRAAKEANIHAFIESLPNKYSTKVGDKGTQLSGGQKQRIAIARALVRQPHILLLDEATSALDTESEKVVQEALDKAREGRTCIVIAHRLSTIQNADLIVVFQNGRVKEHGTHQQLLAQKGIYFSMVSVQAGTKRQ
Sequence of wt-EGFR (P00533 25-1210): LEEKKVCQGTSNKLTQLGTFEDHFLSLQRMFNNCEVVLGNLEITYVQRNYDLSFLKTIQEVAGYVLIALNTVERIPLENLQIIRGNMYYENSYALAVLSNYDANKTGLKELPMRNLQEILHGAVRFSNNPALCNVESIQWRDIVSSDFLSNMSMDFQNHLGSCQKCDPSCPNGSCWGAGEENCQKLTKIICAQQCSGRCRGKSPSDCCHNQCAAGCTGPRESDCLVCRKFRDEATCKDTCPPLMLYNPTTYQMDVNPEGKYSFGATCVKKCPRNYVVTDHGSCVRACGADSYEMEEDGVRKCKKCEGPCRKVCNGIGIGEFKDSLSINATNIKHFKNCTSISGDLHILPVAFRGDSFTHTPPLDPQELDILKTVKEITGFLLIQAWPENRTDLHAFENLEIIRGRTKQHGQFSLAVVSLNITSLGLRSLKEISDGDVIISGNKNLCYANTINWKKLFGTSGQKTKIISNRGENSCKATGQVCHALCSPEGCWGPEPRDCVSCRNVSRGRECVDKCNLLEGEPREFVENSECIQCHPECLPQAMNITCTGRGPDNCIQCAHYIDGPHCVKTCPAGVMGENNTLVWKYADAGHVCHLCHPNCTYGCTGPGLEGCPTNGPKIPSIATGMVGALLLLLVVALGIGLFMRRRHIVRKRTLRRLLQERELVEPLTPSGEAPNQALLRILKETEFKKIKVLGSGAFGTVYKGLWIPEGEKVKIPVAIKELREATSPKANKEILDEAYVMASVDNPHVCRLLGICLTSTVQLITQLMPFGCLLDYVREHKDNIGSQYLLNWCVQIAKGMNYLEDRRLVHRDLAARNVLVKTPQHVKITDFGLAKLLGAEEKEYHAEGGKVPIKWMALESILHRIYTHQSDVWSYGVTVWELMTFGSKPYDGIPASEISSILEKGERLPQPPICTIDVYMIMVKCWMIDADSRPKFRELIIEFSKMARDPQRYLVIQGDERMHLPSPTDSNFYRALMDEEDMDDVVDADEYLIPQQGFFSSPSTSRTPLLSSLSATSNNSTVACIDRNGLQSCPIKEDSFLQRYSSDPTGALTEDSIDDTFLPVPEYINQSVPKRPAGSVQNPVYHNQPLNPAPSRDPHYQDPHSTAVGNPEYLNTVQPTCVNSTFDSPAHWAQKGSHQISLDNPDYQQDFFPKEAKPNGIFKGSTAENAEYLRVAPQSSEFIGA
Sequence of HER2 (P04626 23-1255): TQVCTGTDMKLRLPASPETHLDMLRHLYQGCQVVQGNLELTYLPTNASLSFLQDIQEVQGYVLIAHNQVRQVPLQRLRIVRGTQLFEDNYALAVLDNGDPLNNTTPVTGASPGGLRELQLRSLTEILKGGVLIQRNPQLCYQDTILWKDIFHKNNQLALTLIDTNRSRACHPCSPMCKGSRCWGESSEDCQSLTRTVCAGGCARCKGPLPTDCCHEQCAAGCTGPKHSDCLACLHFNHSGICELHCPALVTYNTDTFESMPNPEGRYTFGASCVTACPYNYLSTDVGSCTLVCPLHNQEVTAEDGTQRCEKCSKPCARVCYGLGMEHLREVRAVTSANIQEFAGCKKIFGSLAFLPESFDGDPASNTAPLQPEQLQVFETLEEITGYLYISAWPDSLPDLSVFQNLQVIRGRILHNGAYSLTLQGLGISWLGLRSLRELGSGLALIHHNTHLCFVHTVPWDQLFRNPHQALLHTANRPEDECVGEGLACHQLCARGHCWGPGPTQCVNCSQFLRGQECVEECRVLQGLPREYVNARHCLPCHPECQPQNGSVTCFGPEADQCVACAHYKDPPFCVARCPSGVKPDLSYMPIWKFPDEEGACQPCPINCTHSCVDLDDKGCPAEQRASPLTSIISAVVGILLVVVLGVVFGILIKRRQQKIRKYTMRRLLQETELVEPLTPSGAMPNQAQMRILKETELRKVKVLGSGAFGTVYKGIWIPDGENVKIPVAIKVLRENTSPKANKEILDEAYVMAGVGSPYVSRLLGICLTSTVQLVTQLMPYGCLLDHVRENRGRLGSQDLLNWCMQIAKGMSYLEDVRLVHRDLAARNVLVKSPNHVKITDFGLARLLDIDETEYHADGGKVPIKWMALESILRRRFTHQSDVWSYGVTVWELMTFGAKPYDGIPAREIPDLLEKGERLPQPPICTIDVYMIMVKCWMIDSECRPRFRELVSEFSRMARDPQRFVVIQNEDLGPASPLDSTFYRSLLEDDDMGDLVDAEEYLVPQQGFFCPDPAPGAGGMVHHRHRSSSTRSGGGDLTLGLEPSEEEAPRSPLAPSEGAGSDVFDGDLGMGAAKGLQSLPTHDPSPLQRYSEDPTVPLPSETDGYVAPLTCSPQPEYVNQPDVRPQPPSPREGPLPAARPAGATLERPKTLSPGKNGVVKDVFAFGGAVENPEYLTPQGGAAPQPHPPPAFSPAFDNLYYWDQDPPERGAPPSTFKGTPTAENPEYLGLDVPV
Sequence of hERG channel (Q12809 whole entry): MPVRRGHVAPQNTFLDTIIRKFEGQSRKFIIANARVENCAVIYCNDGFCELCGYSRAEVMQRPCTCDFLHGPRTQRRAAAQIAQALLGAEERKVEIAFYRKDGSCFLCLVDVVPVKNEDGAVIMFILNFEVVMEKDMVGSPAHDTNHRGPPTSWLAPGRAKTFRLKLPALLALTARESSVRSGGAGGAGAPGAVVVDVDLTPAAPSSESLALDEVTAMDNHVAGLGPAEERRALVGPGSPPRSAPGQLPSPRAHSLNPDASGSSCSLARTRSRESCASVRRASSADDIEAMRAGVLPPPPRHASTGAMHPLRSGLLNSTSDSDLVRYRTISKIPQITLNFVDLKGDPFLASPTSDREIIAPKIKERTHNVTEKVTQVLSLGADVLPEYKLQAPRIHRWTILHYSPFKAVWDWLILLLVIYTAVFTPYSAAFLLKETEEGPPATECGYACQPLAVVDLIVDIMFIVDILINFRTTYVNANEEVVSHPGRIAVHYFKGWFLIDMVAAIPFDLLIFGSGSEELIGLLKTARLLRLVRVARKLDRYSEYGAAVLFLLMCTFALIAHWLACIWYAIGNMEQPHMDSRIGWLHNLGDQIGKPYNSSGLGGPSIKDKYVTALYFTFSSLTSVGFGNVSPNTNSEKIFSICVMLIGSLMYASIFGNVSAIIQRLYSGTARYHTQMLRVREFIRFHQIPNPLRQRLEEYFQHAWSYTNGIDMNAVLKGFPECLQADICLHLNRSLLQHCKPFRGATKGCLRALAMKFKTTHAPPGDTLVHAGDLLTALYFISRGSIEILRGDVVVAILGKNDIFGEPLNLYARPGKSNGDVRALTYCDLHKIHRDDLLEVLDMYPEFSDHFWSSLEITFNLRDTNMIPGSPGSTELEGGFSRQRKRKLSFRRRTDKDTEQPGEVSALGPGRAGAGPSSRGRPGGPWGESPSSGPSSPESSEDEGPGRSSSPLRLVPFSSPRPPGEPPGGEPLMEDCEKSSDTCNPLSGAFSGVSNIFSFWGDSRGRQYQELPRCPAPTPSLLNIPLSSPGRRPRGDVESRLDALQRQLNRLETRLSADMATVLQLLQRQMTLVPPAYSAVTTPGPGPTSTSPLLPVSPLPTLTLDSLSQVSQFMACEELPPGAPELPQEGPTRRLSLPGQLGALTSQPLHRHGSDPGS

Compound | IC50 (HER2) [nM] | Pgp substrate status (P-glycoprotein (Pgp)) | efflux ratio at 2 h, 1 μM (P-glycoprotein (Pgp)) | IC50 (hERG channel) [nM] | hERG liability (hERG channel) | IC50 (wt-EGFR) [nM] | BCRP ER (BCRP) | BCRP substrate status (BCRP) | Kp [1] | brain penetration in vivo [1] | IC50 (wt-EGFR; [2]) [nM] | Mouse Kpu, u [1]
COc1ccc2ncnc(Nc3ccc(Oc4cc5ncnn5cn4)c(C)c3)c2c1O[C@@H]1CCN(C)CC1(F)F [Example 31, (R)—N-(4-([1,2,4]triazolo[1,5-c]pyrimidin-7-yloxy)-3-methylphenyl)-5-((3,3-difluoro-1-methylpiperidin-4-yl)oxy)-6-methoxyquinazolin-4-amine] | 9.5 | not Pgp or BCRP substrates | 1.3 | 18000 | do not show hERG liability | 12000 | 0.68 | not Pgp or BCRP substrates | 0.26 | brain penetrable |  | 
COc1ccc2ncnc(Nc3ccc(Oc4cc5ncnn5cn4)c(Cl)c3)c2c1O[C@@H]1CCN(C)CC1(F)F [Example 33, (R)—N-(4-([1,2,4]triazolo[1,5-c]pyrimidin-7-yloxy)-3-chlorophenyl)-5-((3,3-difluoro-1-methylpiperidin-4-yl)oxy)-6-methoxyquinazolin-4-amine] | 8 | not Pgp or BCRP substrates | 0.6 | 13300 | do not show hERG liability |  | 1.3 | not Pgp or BCRP substrates | 0.24 | brain penetrable | 400 | 
[2H]C([2H])([2H])Oc1ccc2ncnc(Nc3ccc(Oc4cc5ncnn5cn4)c(C)c3)c2c1O[C@@H]1CCN(C)CC1(F)F [Example 36, (R)—N-(4-([1,2,4]-triazolo[1,5-c]pyrimidin-7-yloxy)-3-methylphenyl)-5-((3,3-difluoro-1-methylpiperidin-4-yl)oxy)-6-(methoxy-d3)quinazolin-4-amine] | 11 | not Pgp or BCRP substrates | 0.81 | > 10000 | do not show hERG liability | 440 | 1.8 | not Pgp or BCRP substrates | 0.19 | brain penetrable |  | 
COc1ccc2ncnc(Nc3ccc(Oc4cc5ncnn5cn4)c(C)c3)c2c1N1C[C@@H]2[C@H]1CCN2C [Example 46, N-(4-([1,2,4]triazolo[1,5-c]pyrimidin-7-yloxy)-3-methylphenyl)-6-methoxy-5-((1R,5R)-2-methyl-2,6-diazabicyclo[3.2.0]heptan-6-yl)quinazolin-4-amine] | 7.3 |  |  |  |  |  |  |  |  |  | 215 | 
COc1cc(O[C@H]2CCN(C)CC2(F)F)c2c(Nc3ccc(Oc4cc5ncnn5cn4)c(C)c3)ncnc2c1 [Example 51, (S)—N-(4-([1,2,4]triazolo[1,5-c]pyrimidin-7-yloxy)-3-methylphenyl)-5-((3,3-difluoro-1-methylpiperidin-4-yl)oxy)-7-methoxyquinazolin-4-amine] | 176 |  |  |  |  |  |  |  |  |  | 183 | 
COc1cc(O[C@@H]2CCN(C)CC2(F)F)c2c(Nc3ccc(Oc4cc5ncnn5cn4)c(C)c3)ncnc2c1 [Example 52, (R)—N-(4-([1,2,4]triazolo[1,5-c]pyrimidin-7-yloxy)-3-methylphenyl)-5-((3,3-difluoro-1-methylpiperidin-4-yl)oxy)-7-methoxyquinazolin-4-amine] | 182 |  |  |  |  |  |  |  |  |  | 800 | 
Cc1cc(Nc2ncnc3ccc(NC4=NC(C)(C)CO4)c(N4CC(N(C)C)C4)c23)ccc1Oc1cc2ncnn2cn1 [Example 54, N4-(4-([1,2,4]triazolo[1,5-c]pyrimidin-7-yloxy)-3-methylphenyl)-N6-(4,4-dimethyl-4,5-dihydrooxazol-2-yl)-5-(3-(dimethylamino)azetidin-1-yl)quinazoline-4,6-diamine] | 190 |  |  |  |  |  |  |  |  |  | > 10000 | 
Cc1cc(Nc2ncnc3cccc(N4CC5(CN(C)CCO5)C4)c23)ccc1Oc1cc2ncnn2cn1 [Example 55, N-(4-([1,2,4]triazolo[1,5-c]pyrimidin-7-yloxy)-3-methylphenyl)-5-(8-methyl-5-oxa-2,8-diazaspiro[3.5]nonan-2-yl)quinazolin-4-amine] | 912 |  |  |  |  |  |  |  |  |  | > 10000 | 
CN1CCC(Oc2cccc3ncnc(Nc4ccc(NCc5ccccn5)c(Cl)c4)c23)CC1 [Reference compound 1, 2-chloro-N^4-(5-((1-methylpiperidin-4-yl)oxy)quinazolin-4-yl)-N^1-(pyridin-2-ylmethyl)benzene-1,4-diamine, reference compound] |  |  | 0.57 | < 2000 | strong hERG inhibitor |  | 1.1 |  |  |  |  | 
CCOc1cc2ncc(C#N)c(Nc3ccc(OCc4ccccn4)c(Cl)c3)c2cc1NC(=O)/C=C/CN(C)C [Reference compound 2, Neratinib, reference compound] |  | strong Pgp substrates | > 18.6 | > 10000 |  |  | 1.4 |  |  | not brain penetrable in vivo |  | too low to calculate
Cc1cc(Nc2ncnc3ccc(NC4=NC(C)(C)CO4)cc23)ccc1Oc1ccn2ncnc2c1 [Reference compound 3, N4-(4-([1,2,4]triazolo[1,5-a]pyridin-7-yloxy)-3-methylphenyl)-N6-(4,4-dimethyl-4,5-dihydrooxazol-2-yl)quinazoline-4,6-diamine, reference compound] |  | strong Pgp substrates | 23.8 | > 10000 |  |  | 2.1 |  |  | not brain penetrable in vivo |  | too low to calculate
